Consider 33 molecules from US20210317134A1, “UBIQUITIN-SPECIFIC-PROCESSING PROTEASE 7 (USP7) MODULATORS AND USES THEREOF” (RAPT THERAPEUTICS, INC., priority 2019, published 2021).

Some results are limits rather than exact numbers.

In general, IC50 refers to the midpoint of a concentration-inhibition curve. Low readings indicate greater potency, high ones weaker potency.

This assay deals with USP7 (Homo sapiens, UniProt Q93009). Nature of the assay: USP7 inhibitory potency (Table 1). It counts as biochemical.
Sequence of USP7 (Q93009 whole entry): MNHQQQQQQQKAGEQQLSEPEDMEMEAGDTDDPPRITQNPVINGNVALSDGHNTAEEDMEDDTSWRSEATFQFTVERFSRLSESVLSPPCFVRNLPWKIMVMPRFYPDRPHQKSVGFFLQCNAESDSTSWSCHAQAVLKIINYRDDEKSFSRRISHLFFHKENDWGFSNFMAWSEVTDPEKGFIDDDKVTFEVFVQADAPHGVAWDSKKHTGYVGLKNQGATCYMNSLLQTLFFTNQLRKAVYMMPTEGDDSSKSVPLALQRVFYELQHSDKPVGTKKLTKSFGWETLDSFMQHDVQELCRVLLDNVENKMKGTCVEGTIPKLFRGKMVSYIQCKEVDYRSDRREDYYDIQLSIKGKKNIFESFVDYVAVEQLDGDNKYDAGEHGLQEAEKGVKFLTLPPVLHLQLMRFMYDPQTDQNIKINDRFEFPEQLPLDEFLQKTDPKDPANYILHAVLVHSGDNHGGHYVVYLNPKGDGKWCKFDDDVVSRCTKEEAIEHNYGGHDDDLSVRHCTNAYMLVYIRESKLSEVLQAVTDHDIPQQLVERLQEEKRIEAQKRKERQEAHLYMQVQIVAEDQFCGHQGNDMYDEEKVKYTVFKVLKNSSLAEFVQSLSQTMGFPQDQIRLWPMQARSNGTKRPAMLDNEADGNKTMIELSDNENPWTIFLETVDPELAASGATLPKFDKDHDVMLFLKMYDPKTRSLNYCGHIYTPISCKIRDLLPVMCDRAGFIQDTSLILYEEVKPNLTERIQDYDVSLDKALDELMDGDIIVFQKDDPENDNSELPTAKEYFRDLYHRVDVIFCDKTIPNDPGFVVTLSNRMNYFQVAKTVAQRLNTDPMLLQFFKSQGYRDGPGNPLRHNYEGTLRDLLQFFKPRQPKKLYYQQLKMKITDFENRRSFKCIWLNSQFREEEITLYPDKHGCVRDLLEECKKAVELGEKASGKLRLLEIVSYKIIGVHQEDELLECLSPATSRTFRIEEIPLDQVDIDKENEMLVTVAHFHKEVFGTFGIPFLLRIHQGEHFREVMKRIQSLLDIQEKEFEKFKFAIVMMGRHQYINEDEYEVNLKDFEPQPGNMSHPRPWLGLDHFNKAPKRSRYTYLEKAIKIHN

In the case of `CC(C)(O)C1Cc2nccc(-c3cc(Cl)cc4c3O[C@@H](c3onc5c3CNCC5)C4)c2C1` (stereo partly drawn) [2-(4-((R)-5-chloro-2-(4,5,6,7-tetrahydroisoxazolo[4,3-c]pyridin-3-yl)-2,3-dihydrobenzofuran-7-yl)-6,7-dihydro-5H-cyclopenta[b]pyridin-6-yl)propan-2-ol], the IC50 was in the range of 1000 to 10000 nM.
As for `C[C@H](O)c1cc2c(-c3cc(Cl)cc4c3OC(C(=O)N3CCNCC3)C4)ccnc2[nH]1` (stereo partly drawn) [(5-chloro-7-(2-((S)-1-hydroxyethyl)-1H-pyrrolo[2,3-b]pyridin-4-yl)-2,3-dihydrobenzofuran-2-yl)(piperazin-1-yl)methanone], the figure is 1000 to 10000 nM.
In turn, `O=C(C1Cc2cc(Cl)cc(-c3ccnc4[nH]ccc34)c2O1)N1CCC(c2ccc(O)cc2)CC1` (stereo not drawn) [(5-chloro-7-(1H-pyrrolo[2,3-b]pyridin-4-yl)-2,3-dihydrobenzofuran-2-yl)(4-(4-hydroxyphenyl)piperidin-1-yl)methanone] registered an IC50 of 10000 to 30000 nM.
Molecule `Cn1nc2c(c1[C@H]1Cc3cc(Cl)cc(-c4ncnc5ccsc45)c3O1)CNCC2` [(R)-4-(5-chloro-2-(2-methyl-4,5,6,7-tetrahydro-2H-pyrazolo[4,3-c]pyridin-3-yl)-2,3-dihydrobenzofuran-7-yl)thieno[3,2-d]pyrimidine] showed an IC50 of under 1000 nM.
As for `Cc1cc2ncnc(-c3cc(Cl)cc4c3O[C@@H](c3onc5c3CNCC5)C4)c2o1` [(R)-3-(5-chloro-7-(6-methylfuro[3,2-d]pyrimidin-4-yl)-2,3-dihydrobenzofuran-2-yl)-4,5,6,7-tetrahydroisoxazolo[4,3-c]pyridine], the figure is under 1000 nM; as for `Cc1cnccc1-c1cc(Cl)cc2c1OC(C(=O)N1CCNCC1)C2` (stereo not drawn), 10000 to 30000 nM.
The molecule `OC1(c2cc3nccc(-c4cc(Cl)cc5c4O[C@@H](c4onc6c4CNCC6)C5)c3s2)CNC1` [(R)-3-(7-(5-chloro-2-(4,5,6,7-tetrahydroisoxazolo[4,3-c]pyridin-3-yl)-2,3-dihydrobenzofuran-7-yl)thieno[3,2-b]pyridin-2-yl)azetidin-3-ol] showed an IC50 of 1000 to 10000 nM.
To `O=C(C1Cc2cc(Cl)cc(-c3ccnc4[nH]ccc34)c2O1)N1CCN([C@H]2CC[C@@H](c3ccccc3)CC2)CC1` (stereo partly drawn) [(5-chloro-7-(1H-pyrrolo[2,3-b]pyridin-4-yl)-2,3-dihydrobenzofuran-2-yl)(4-((1s,4s)-4-phenylcyclohexyl)piperazin-1-yl)methanone] belongs 1000 to 10000 nM; to `CCC(O)c1cc2nccc(-c3cc(Cl)cc4c3O[C@@H](c3[nH]nc5c3CNCC5)C4)c2s1` (stereo partly drawn) [1-(7-((R)-5-chloro-2-(4,5,6,7-tetrahydro-2H-pyrazolo[4,3-c]pyridin-3-yl)-2,3-dihydrobenzofuran-7-yl)thieno[3,2-b]pyridin-2-yl)propan-1-ol], under 1000 nM.
For `CCC(O)c1cc2nccc(-c3cc(Cl)cc4c3O[C@@H](c3onc5c3CNCC5)CC4)c2s1` (stereo partly drawn) [1-(7-((R)-6-chloro-2-(4,5,6,7-tetrahydroisoxazolo[4,3-c]pyridin-3-yl)chroman-8-yl)thieno[3,2-b]pyridin-2-yl)propan-1-ol], the IC50 was under 1000 nM.
Molecule `CC[C@@H](O)c1cc2nccc(-c3cc(Cl)cc4c3O[C@@H](C(=O)N3CCNCC3)C4)c2s1` [((R)-5-chloro-7-(2-((R)-1-hydroxypropyl)thieno[3,2-b]pyridin-7-yl)-2,3-dihydrobenzofuran-2-yl)(piperazin-1-yl)methanone] returned an IC50 of under 1000 nM.
For `Cn1nc2c(c1[C@H]1Cc3cc(Cl)cc(-c4ncnc5ccoc45)c3O1)CNCC2` [(R)-4-(5-chloro-2-(2-methyl-4,5,6,7-tetrahydro-2H-pyrazolo[4,3-c]pyridin-3-yl)-2,3-dihydrobenzofuran-7-yl)furo[3,2-d]pyrimidine], the half-inhibitory concentration (IC50) was under 1000 nM.
In the case of `CC(O)Cc1cc2nccc(-c3cc(Cl)cc4c3O[C@@H](C(=O)N3CCNCC3)C4)c2s1` (stereo partly drawn) [((2R)-5-chloro-7-(2-(2-hydroxypropyl)thieno[3,2-b]pyridin-7-yl)-2,3-dihydrobenzofuran-2-yl)(piperazin-1-yl)methanone], the IC50 is under 1000 nM.
As to `CN(C)[C@H]1CCN(C(=O)[C@H]2Cc3cc(Cl)cc(-c4ccnc5ccsc45)c3O2)C1` [((R)-5-chloro-7-(thieno[3,2-b]pyridin-7-yl)-2,3-dihydrobenzofuran-2-yl)((S)-3-(dimethylamino)pyrrolidin-1-yl)methanone], the IC50 is 1000 to 10000 nM.
To `OCc1cc2ncnc(-c3cc(Cl)cc4c3O[C@@H](c3onc5c3CNCC5)C4)c2o1` [(R)-(4-(5-chloro-2-(4,5,6,7-tetrahydroisoxazolo[4,3-c]pyridin-3-yl)-2,3-dihydrobenzofuran-7-yl)furo[3,2-d]pyrimidin-6-yl)methanol] belongs under 1000 nM; to `CN1CCC(CN2CCN(C(=O)C3Cc4cc(Cl)cc(-c5ccnc6[nH]ccc56)c4O3)CC2)CC1` (stereo not drawn) [(5-chloro-7-(1H-pyrrolo[2,3-b]pyridin-4-yl)-2,3-dihydrobenzofuran-2-yl)(4-((1-methylpiperidin-4-yl)methyl)piperazin-1-yl)methanone], 1000 to 10000 nM; to `CN1CCc2noc([C@H]3Cc4cc(Cl)cc(-c5ccnc6cc(C#N)ccc56)c4O3)c2C1` [(R)-4-(5-chloro-2-(5-methyl-4,5,6,7-tetrahydroisoxazolo[4,3-c]pyridin-3-yl)-2,3-dihydrobenzofuran-7-yl)quinoline-7-carbonitrile], 1000 to 10000 nM.
As for `O=C(C1Cc2cc(Cl)cc(-c3ccnc(Nc4ccccc4)c3)c2O1)N1CCNCC1` (stereo not drawn) [(5-chloro-7-(2-(phenylamino)pyridin-4-yl)-2,3-dihydrobenzofuran-2-yl)(piperazin-1-yl)methanone], the figure is 10000 to 30000 nM; as for `Cn1ccc(=O)n(Cc2cc3nccc(-c4cc(Cl)cc5c4O[C@@H](C(=O)N4CCNCC4)C5)c3s2)c1=O` [(R)-3-((7-(5-chloro-2-(piperazine-1-carbonyl)-2,3-dihydrobenzofuran-7-yl)thieno[3,2-b]pyridin-2-yl)methyl)-1-methylpyrimidine-2,4(1H,3H)-dione], under 1000 nM.
`CCC(O)c1cc2nccc(-c3cc(Cl)cc4c3O[C@@H](c3nn(C)c5c3CNCC5)C4)c2s1` (stereo partly drawn) [1-(7-((R)-5-chloro-2-(1-methyl-4,5,6,7-tetrahydro-1H-pyrazolo[4,3-c]pyridin-3-yl)-2,3-dihydrobenzofuran-7-yl)thieno[3,2-b]pyridin-2-yl)propan-1-ol]: the IC50 was under 1000 nM.
As for `O=C(C1Cc2cc(Cl)c(Cl)c(-c3ccnc4[nH]ccc34)c2O1)N1CCNCC1` (stereo not drawn) [(5,6-dichloro-7-(1H-pyrrolo[2,3-b]pyridin-4-yl)-2,3-dihydrobenzofuran-2-yl)(piperazin-1-yl)methanone], the figure is 1000 to 10000 nM; as for `CCC(O)c1cc2nccc(-c3cc(Cl)cc4c3O[C@@H](c3ocnc3CN3CCNCC3)C4)c2s1` (stereo partly drawn) [1-(7-((R)-5-chloro-2-(4-(piperazin-1-ylmethyl)oxazol-5-yl)-2,3-dihydrobenzofuran-7-yl)thieno[3,2-b]pyridin-2-yl)propan-1-ol], under 1000 nM.
For `COc1ccc2c(-c3cc(Cl)cc4c3O[C@@H](c3onc5c3CNCC5)C4)ccnc2c1` [(R)-3-(5-chloro-7-(7-methoxyquinolin-4-yl)-2,3-dihydrobenzofuran-2-yl)-4,5,6,7-tetrahydroisoxazolo[4,3-c]pyridine], the IC50 is under 1000 nM.
To `CCC1(CC)Cc2nccc(-c3cc(Cl)cc4c3O[C@@H](c3onc5c3CNCC5)C4)c2C1` [(R)-3-(5-chloro-7-(6,6-diethyl-6,7-dihydro-5H-cyclopenta[b]pyridin-4-yl)-2,3-dihydrobenzofuran-2-yl)-4,5,6,7-tetrahydroisoxazolo[4,3-c]pyridine] belongs 1000 to 10000 nM; to `Cn1nc2c(c1[C@H]1Cc3cc(Cl)cc(-c4ccnc5cc(CN6C(=O)CCC6=O)sc45)c3O1)CNCC2` [(R)-1-((7-(5-chloro-2-(2-methyl-4,5,6,7-tetrahydro-2H-pyrazolo[4,3-c]pyridin-3-yl)-2,3-dihydrobenzofuran-7-yl)thieno[3,2-b]pyridin-2-yl)methyl)pyrrolidine-2,5-dione], under 1000 nM; to `O=C(C1Cc2cc(Cl)cc(-c3ccnc4[nH]c(Cc5cccnc5)cc34)c2O1)N1CCNCC1` (stereo not drawn) [(5-chloro-7-(2-(pyridin-3-ylmethyl)-1H-pyrrolo[2,3-b]pyridin-4-yl)-2,3-dihydrobenzofuran-2-yl)(piperazin-1-yl)methanone], 1000 to 10000 nM.
Take `CN(C)C1CCN(C(=O)[C@H]2Cc3cc(Cl)cc(-c4ccnc5cc(CO)sc45)c3O2)CC1` [(R)-(5-chloro-7-(2-(hydroxymethyl)thieno[3,2-b]pyridin-7-yl)-2,3-dihydrobenzofuran-2-yl)(4-(dimethylamino)piperidin-1-yl)methanone]: the half-inhibitory concentration (IC50) is under 1000 nM.
For `CN(C)Cc1ncoc1[C@H]1Cc2cc(Cl)cc(-c3ccnc4ccsc34)c2O1` [(R)-1-(5-(5-chloro-7-(thieno[3,2-b]pyridin-7-yl)-2,3-dihydrobenzofuran-2-yl)oxazol-4-yl)-N,N-dimethylmethanamine], the half-maximal inhibitory concentration (IC50) was under 1000 nM.
With `Cc1c(-c2cc(Cl)cc3c2OC(C(=O)N2CCNCC2)C3)ccnc1N` (stereo not drawn) [(7-(2-amino-3-methylpyridin-4-yl)-5-chloro-2,3-dihydrobenzofuran-2-yl)(piperazin-1-yl)methanone], the IC50 lay in the range of 1000 to 10000 nM.
To `CN1CCc2noc([C@H]3Cc4cc(Cl)cc(-c5ccnc6ccsc56)c4O3)c2C1` [(R)-3-(5-chloro-7-(thieno[3,2-b]pyridin-7-yl)-2,3-dihydrobenzofuran-2-yl)-5-methyl-4,5,6,7-tetrahydroisoxazolo[4,3-c]pyridine] belongs under 1000 nM; to `CS(=O)(=O)c1ccc2c(-c3cc(Cl)cc4c3O[C@@H](c3onc5c3CNCC5)C4)ccnc2c1` [(R)-3-(5-chloro-7-(7-(methylsulfonyl)quinolin-4-yl)-2,3-dihydrobenzofuran-2-yl)-4,5,6,7-tetrahydroisoxazolo[4,3-c]pyridine], 1000 to 10000 nM.
As for `CN[C@H]1CCCN(C(=O)[C@H]2Cc3cc(Cl)cc(-c4ccnc5ccsc45)c3O2)C1` [((R)-5-chloro-7-(thieno[3,2-b]pyridin-7-yl)-2,3-dihydrobenzofuran-2-yl)((S)-3-(methylamino)piperidin-1-yl)methanone], the figure is under 1000 nM; as for `OCc1cc2nccc(-c3cc(Cl)cc4c3O[C@@H](c3onc5c3CNCC5)CC4)c2s1` [(R)-(7-(6-chloro-2-(4,5,6,7-tetrahydroisoxazolo[4,3-c]pyridin-3-yl)chroman-8-yl)thieno[3,2-b]pyridin-2-yl)methanol], under 1000 nM.
